Structures can show the parent of a compound that is named as a salt. Where two headings read alike, the source gives them in different places.
Settings: for hygroscopicity / deliquescence by DVS profile (in words): hydrobromide salt
Experimental: DVS analysis was performed on two of the HCl salts of pridopidine (HCl salt of pridopidine batches A and B). A full two cycle sorption and desorption profile was obtained for a third HCl salt of pridopidine (hydrochloride salt of pridopidine batch C).
An additional run was performed in the mid-eighties relative humidity range in order to indentify the transition point in more detail. (See FIG. 9). […] Dynamic vapour sorption (DVS) measurements were conducted using a Q5000 SA from TA instruments.
Prior to the first sorption cycle the sample was equilibrated at 20% RH and the initial weight recorded. Samples were analyzed in an aluminium pan. Humidity was brought down to 0% RH and the sample dried until the weight had stabilized within a given limit. The temperature was held constant at 25° C. Maximum step time was 720 min. Gas flow was 200 cm^3/min.

Row | weight gained between 0 and 95% RH (DVS), lost again during desorption (0-95% RH, two sorption/desorption cycles, 25° C.) | hygroscopicity / deliquescence by DVS profile (in words) (0-95% RH) | hygroscopicity / deliquescence by DVS profile (in words) (0-95% RH, listed as NS30016-HBr salt) | weight gained at the 95% relative humidity (RH) level (DVS) (95% RH, 25° C.) | weight gain at 90% relative humidity (DVS) (90% RH step, first sorption cycle) | state of specimen at the end of the DVS cycle (additional run with smaller steps in the mid-eighties RH range (80-90-80%)) | SMILES
1 | approximately 0.15% | non-hygroscopic and non-deliquescent | non-hygroscopic | less than 1% | – | – | Br.CCCN1CCC(c2cccc(S(C)(=O)=O)c2)CC1 [Pridopidine hydrobromide, 4-(3-methanesulfonyl-phenyl)-1-propyl-piperidine hydrobromide salt]
2 | – | – | – | – | approximately 80% | completely dissolved | CCCN1CCC(c2cccc(S(C)(=O)=O)c2)CC1 [hydrochloride salt of pridopidine, hydrochloride salt of 4-(3-methanesulfonyl-phenyl)-1-propyl-piperidine, reference compound]
